Data reported in ChEMBL document CHEMBL1201862, “PubChem BioAssay data set” (2004).
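In this assay, cells in 96-well plates receive the compound at five concentrations for 48 hours. Endpoints are linearly interpolated between the surrounding concentrations. Abbreviation: GI50, concentration required for 50% inhibition of growth.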 The source made the active and inactive calls. Cut-off read from the data, not from the text of the source: active = GI50 up to about 1.1 µM and inactive = higher.

Legend:
Assay in all cases: NCI tumour cell line growth inhibition, 48 h
[1] = tested on: BT-549
[2] = tested on: HCC 2998
[3] = tested on: HCT-116
[4] = tested on: HL-60
[5] = tested on: HOP-62
[6] = tested on: LOX IMVI
[7] = tested on: NCI-H23
[8] = tested on: OVCAR-5
[9] = tested on: OVCAR-8
[10] = tested on: RPMI-8226
[11] = tested on: SF-268
[12] = tested on: SF-539
[13] = tested on: SN12C
[14] = tested on: SNB-75
[15] = tested on: SR
[16] = tested on: T47D
[17] = tested on: U-251
[18] = tested on: NCI-H460
[19] = tested on: RXF 393

Measured: GI50

COC(=O)Oc1nn(C(=O)OC)c(=O)c2ccccc12
inactive: [1] > 100 µM | [2] 59.8 µM | [3] > 100 µM | [4] > 100 µM | [5] > 100 µM | [6] > 100 µM | [7] > 100 µM | [8] > 100 µM | [9] > 100 µM | [10] > 100 µM | [11] > 100 µM | [12] 61.8 µM | [13] > 100 µM | [14] 54.5 µM | [15] > 100 µM | [16] 74.5 µM | [17] > 100 µM

COc1ccc(C(=O)/C=C/c2ccc(OCC(=N)N)cc2)cc1
inactive: [1] 17.9 µM | [2] 16.6 µM | [3] 4.55 µM | [5] 15.8 µM | [7] 18.7 µM | [18] > 10 µM | [8] 31.7 µM | [9] 14.3 µM | [19] 14.7 µM | [11] 17.3 µM | [12] 15.8 µM | [13] 13.5 µM | [14] 5.73 µM | [15] 5 µM | [16] 10.7 µM | [17] 13.9 µM

CNC(=O)C(NC(=O)[C@H](CC(C)C)NC(=O)[C@@H](S)CCN1C(=O)N(C)C(C)(C)C1=O)C(C)(C)C (stereo not given in full)
inactive: [1] > 100 µM | [2] > 100 µM | [3] > 100 µM | [4] > 100 µM | [5] > 100 µM | [6] 2.91 µM | [7] > 100 µM | [18] > 100 µM | [8] > 100 µM | [9] > 100 µM | [10] > 100 µM | [19] > 100 µM | [11] > 100 µM | [13] > 100 µM | [15] > 100 µM | [16] > 100 µM

O=C(Cc1ccccc1)NNc1nc(NNC(=O)c2ccncc2)nc(Nc2ccc(Cl)cc2)n1
inactive: [1] > 10 µM | [2] > 10 µM | [4] > 10 µM | [5] > 10 µM | [6] > 10 µM | [7] > 10 µM | [9] > 10 µM | [10] > 10 µM | [11] > 10 µM | [12] > 10 µM | [13] > 10 µM | [14] > 10 µM | [15] > 10 µM | [16] > 10 µM | [17] > 10 µM

O=c1c2c3c(sc2nc2n1N=CN(c1ccc(F)cc1)C2)CCCC3
inactive: [1] > 100 µM | [2] > 100 µM | [3] > 100 µM | [5] > 100 µM | [6] > 100 µM | [7] > 100 µM | [18] > 100 µM | [8] > 100 µM | [9] > 100 µM | [10] > 100 µM | [19] > 100 µM | [11] > 100 µM | [13] > 100 µM | [14] > 100 µM | [15] > 100 µM | [16] > 100 µM | [17] > 100 µM

C=CCOc1ccc(C2(O)c3ccccc3C3=NCCCN32)cc1 (stereo not given)
inactive: [1] > 100 µM | [2] 24.6 µM | [3] 49.9 µM | [4] 35.7 µM | [5] 60.5 µM | [6] 48.8 µM | [7] 60.1 µM | [18] > 100 µM | [8] 72.4 µM | [9] > 100 µM | [10] 26.4 µM | [11] > 61.4 µM | [12] 56 µM | [13] > 73.6 µM | [14] 32 µM | [15] 25.2 µM | [16] 27.9 µM | [17] 43.2 µM

Cn1c2ccccc2n2c3ncccc3c(=S)c(C#N)c12
inactive: [1] > 100 µM | [2] > 100 µM | [3] > 100 µM | [4] > 100 µM | [5] > 100 µM | [6] > 100 µM | [7] > 100 µM | [18] 90.4 µM | [8] > 100 µM | [9] > 100 µM | [10] > 100 µM | [19] > 100 µM | [11] > 100 µM | [13] > 100 µM | [14] 40.3 µM | [15] 71.4 µM | [16] > 100 µM | [17] > 100 µM

CN(/N=C/c1ccc(Cl)c(Cl)c1)C1=NCCN1
inactive: [1] 28.3 µM | [2] 30.3 µM | [3] 17.9 µM | [5] 17.4 µM | [6] 12.4 µM | [7] 56 µM | [18] 40.8 µM | [8] > 100 µM | [9] 40.3 µM | [10] 24.8 µM | [11] 28.7 µM | [12] 21.2 µM | [13] 29.9 µM | [14] 15.8 µM | [15] 31.2 µM | [16] 23 µM | [17] 23.2 µM

CC1(C)CC23CC(C)(C)c4cccc(c42)OCc2ccc4ccc5ccc(nc5c4n2)COc2cccc1c23
inactive: [1] > 50 µM | [2] > 50 µM | [3] > 50 µM | [4] > 50 µM | [5] > 50 µM | [6] > 50 µM | [18] > 50 µM | [8] > 50 µM | [9] > 50 µM | [10] > 50 µM | [11] > 50 µM | [12] > 50 µM | [13] > 50 µM | [14] > 50 µM | [15] > 50 µM | [16] > 50 µM | [17] > 50 µM

C1CCN(CCC2CCCCN2)CC1 (stereo not given)
inactive: [1] > 100 µM | [3] > 100 µM | [4] > 100 µM | [5] > 100 µM | [6] > 100 µM | [7] > 100 µM | [18] 55 µM | [8] > 100 µM | [9] > 100 µM | [10] > 100 µM | [19] > 100 µM | [11] > 100 µM | [12] > 100 µM | [13] > 100 µM | [14] > 100 µM | [15] > 100 µM | [16] > 100 µM | [17] > 100 µM

N/C(=N\c1ccc(Cl)cc1)NS(=O)(=O)c1cccc2nsnc12
inactive: [1] 25.2 µM | [3] 31.8 µM | [4] 17.9 µM | [5] 94.2 µM | [6] 25.1 µM | [7] 34.7 µM | [18] 19.1 µM | [8] 55.7 µM | [9] 27.6 µM | [10] 33.8 µM | [19] > 100 µM | [11] 26.8 µM | [12] 37.3 µM | [13] 25.4 µM | [14] > 100 µM | [15] 33 µM | [16] 39.4 µM | [17] 19.4 µM

Cc1ccc(-c2n[nH]c(=O)n2N)cc1
inactive: [1] > 100 µM | [2] > 100 µM | [3] > 100 µM | [4] > 100 µM | [5] > 100 µM | [6] > 100 µM | [7] > 100 µM | [18] > 100 µM | [8] > 100 µM | [9] > 100 µM | [10] > 100 µM | [11] > 100 µM | [12] > 100 µM | [13] > 100 µM | [14] 48 µM | [15] > 100 µM | [16] > 100 µM | [17] > 100 µM
